Assay results: patent US20240141294A1, “CGMP COMPLIANT PRODUCTION AND EXPANSION OF PLASMACYTOID DENDRITIC CELLS FROM HEMATOPOIETIC STEM AND PROGENITOR CELLS” (AARHUS UNIVERSITET, priority 2021, published 2024)

System: HSPC-pDCs
Assay: RNA-sequencing of HSPC-pDCs generated with or without ascorbic acid
Type: cell-based, human
Conditions: for Log2 (+AA/−AA) / +AA FPKM: Table 2
Experimental: HSPCs were thawed and 1×10^5 cells were seeded in DC medium with or without supplementation of ascorbic acid (AA). Following 16 days of differentiation with or without AA in the medium, pDCs were isolated by immunomagnetic depletion of non-pDCs, and HSPCs-pDCs were then primed for 72 hours with IFN-β/γ. Following priming, HSPC-pDCs were stored in RNAprotect Cell Reagent (Qiagen) at −80° C. until total RNA was extracted using the RNeasy Plus Micro Kit (Qiagen), which efficiently eliminates genomic DNA without the need for DNase treatment. The total RNA was send to BGI Europe for RNA-seq. Here, a non-stranded & polyA-selected mRNA library was prepared from the total RNA and subjected to PE100 sequencing using the BGISEQ platform. The samples generated on average about 4.84 Gb bases per sample. Low quality reads were filtered and the remaining reads were mapped to the genome with an average mapping ratio with the reference genome at 92.74%, the average gene mapping ratio at 79.90%. In total, 18,412 genes were identified. Gene expression was calculated based on the reads, differentially expressed genes and gene ontology analyses were analyzed on BGI's software analysis platform Dr. Tom. HSPCs were thawed and 1×10^5 cells were seeded in DC medium with or without supplementation of ascorbic acid (AA). Following 16 days of differentiation with or without AA in the medium, pDCs were isolated by immunomagnetic depletion of non-pDCs, and HSPCs-pDCs were then primed for 72 hours with IFN-β/γ. Following priming, HSPC-pDCs were stored in RNAprotect Cell Reagent (Qiagen) at −80 degrees until total RNA was extracted using the RNeasy Plus Micro Kit (Qiagen), which efficiently eliminates genomic DNA without the need for DNase treatment. The total RNA was send to BGI Europe for RNA-seq. Here, a non-stranded & polyA-selected mRNA library was prepared from the total RNA and subjected to PE100 sequencing using the BGISEQ platform. The samples generated on average about 4.84 Gb bases per sample. Low quality reads were filtered and the remaining reads were mapped to the genome with an average mapping ratio with the reference genome at 92.74%, the average gene mapping ratio at 79.90%. In total, 18,412 genes were identified. Gene expression was calculated based on the reads, differentially expressed genes and gene ontology analyses were analyzed on BGI's software analysis platform Dr. Tom.

O=C1O[C@H]([C@@H](O)CO)C(O)=C1O [ascorbic acid]
Log2 (+AA/−AA) (gene ACP5, Qvalue 4.83E−10): 2.221
+AA FPKM (gene ACP5, −AA FPKM 31.073): 146.980 FPKM
Log2 (+AA/−AA) (gene ADAMDEC1, Qvalue 0.0010135): 3.569
+AA FPKM (gene ADAMDEC1, −AA FPKM 1.127): 13.453 FPKM
Log2 (+AA/−AA) (gene ASS1, Qvalue 2.41E−08): 5.358
+AA FPKM (gene ASS1, −AA FPKM 0.477): 19.263 FPKM
Log2 (+AA/−AA) (gene ATF5, Qvalue 2.01E−54): 2.398
+AA FPKM (gene ATF5, −AA FPKM 24.183): 129.867 FPKM
Log2 (+AA/−AA) (gene AXL, Qvalue 9.98E−29): 4.406
+AA FPKM (gene AXL, −AA FPKM 1.033): 21.903 FPKM
Log2 (+AA/−AA) (gene C3, Qvalue 0.001547846): 3.579
+AA FPKM (gene C3, −AA FPKM 1.227): 14.750 FPKM
Log2 (+AA/−AA) (gene CCL2, Qvalue 5.74E−06): 4.646
+AA FPKM (gene CCL2, −AA FPKM 7.183): 179.503 FPKM
Log2 (+AA/−AA) (gene CCL13, Qvalue 8.06E−14): 6.195
+AA FPKM (gene CCL13, −AA FPKM 0.197): 14.483 FPKM
Log2 (+AA/−AA) (gene CD14, Qvalue 2.98E−25): 4.038
+AA FPKM (gene CD14, −AA FPKM 2.797): 46.303 FPKM
Log2 (+AA/−AA) (gene CD209, Qvalue 9.84E−27): 2.774
+AA FPKM (gene CD209, −AA FPKM 2.460): 16.407 FPKM
Log2 (+AA/−AA) (gene CES1, Qvalue 0.03002647): 3.002
+AA FPKM (gene CES1, −AA FPKM 6.620): 52.940 FPKM
Log2 (+AA/−AA) (gene CFB, Qvalue 2.09E−06): 3.059
+AA FPKM (gene CFB, −AA FPKM 1.257): 10.533 FPKM
Log2 (+AA/−AA) (gene CHI3L1, Qvalue 0.024834793): 2.178
+AA FPKM (gene CHI3L1, −AA FPKM 108.107): 495.927 FPKM
Log2 (+AA/−AA) (gene CTSL, Qvalue 0.031636618): 2.759
+AA FPKM (gene CTSL, −AA FPKM 3.140): 21.410 FPKM
Log2 (+AA/−AA) (gene CXCL10, Qvalue 1.78E−06): 2.352
+AA FPKM (gene CXCL10, −AA FPKM 36.100): 183.493 FPKM
Log2 (+AA/−AA) (gene DEFA1, Qvalue 6.38E−05): 5.728
+AA FPKM (gene DEFA1, −AA FPKM 19.907): 1047.070 FPKM
Log2 (+AA/−AA) (gene DEFA3, Qvalue 0.001704486): 4.431
+AA FPKM (gene DEFA3, −AA FPKM 27.457): 593.480 FPKM
Log2 (+AA/−AA) (gene DEFA4, Qvalue 1.65E−08): 4.651
+AA FPKM (gene DEFA4, −AA FPKM 39.303): 975.213 FPKM
Log2 (+AA/−AA) (gene DNASE1L3, Qvalue 5.63E−10): 2.459
+AA FPKM (gene DNASE1L3, −AA FPKM 1.893): 10.470 FPKM
Log2 (+AA/−AA) (gene FPR3, Qvalue 3.93E−08): 2.200
+AA FPKM (gene FPR3, −AA FPKM 10.853): 50.280 FPKM
Log2 (+AA/−AA) (gene GIMAP4, Qvalue 3.03E−09): 2.409
+AA FPKM (gene GIMAP4, −AA FPKM 3.960): 20.933 FPKM
Log2 (+AA/−AA) (gene GPNMB, Qvalue 4.79E−08): 4.418
+AA FPKM (gene GPNMB, −AA FPKM 4.760): 101.280 FPKM
Log2 (+AA/−AA) (gene GZMB, Qvalue 3.57E−07): 3.081
+AA FPKM (gene GZMB, −AA FPKM 3.773): 31.393 FPKM
Log2 (+AA/−AA) (gene HSD11B1, Qvalue 0.044667374): 3.736
+AA FPKM (gene HSD11B1, −AA FPKM 1.240): 16.590 FPKM
Log2 (+AA/−AA) (gene IFI27, Qvalue 3.56E−04): 4.638
+AA FPKM (gene IFI27, −AA FPKM 14.857): 376.697 FPKM
Log2 (+AA/−AA) (gene IFI44L, Qvalue 1.82E−05): 2.109
+AA FPKM (gene IFI44L, −AA FPKM 17.913): 81.280 FPKM
Log2 (+AA/−AA) (gene IL4I1, Qvalue 5.63E−07): 2.589
+AA FPKM (gene IL4I1, −AA FPKM 4.657): 28.410 FPKM
Log2 (+AA/−AA) (gene IL32, Qvalue 2.92E−23): 2.353
+AA FPKM (gene IL32, −AA FPKM 5.960): 30.560 FPKM
Log2 (+AA/−AA) (gene KYNU, Qvalue 2.56E−05): 2.148
+AA FPKM (gene KYNU, −AA FPKM 6.050): 26.750 FPKM
Log2 (+AA/−AA) (gene LAG3, Qvalue 8.08E−20): 3.418
+AA FPKM (gene LAG3, −AA FPKM 2.770): 29.953 FPKM
Log2 (+AA/−AA) (gene LCN2, Qvalue 1.39E−54): 5.282
+AA FPKM (gene LCN2, −AA FPKM 0.930): 35.670 FPKM
Log2 (+AA/−AA) (gene LILRB4, Qvalue 3.21E−22): 3.922
+AA FPKM (gene LILRB4, −AA FPKM 1.363): 19.833 FPKM
Log2 (+AA/−AA) (gene MAFB, Qvalue 0.00100367): 3.471
+AA FPKM (gene MAFB, −AA FPKM 1.023): 11.443 FPKM
Log2 (+AA/−AA) (gene MMP14, Qvalue 1.27E−18): 4.564
+AA FPKM (gene MMP14, −AA FPKM 1.470): 34.870 FPKM
Log2 (+AA/−AA) (gene MPEG1, Qvalue 3.81E−23): 2.325
+AA FPKM (gene MPEG1, −AA FPKM 22.783): 112.763 FPKM
Log2 (+AA/−AA) (gene MX1, Qvalue 0.026353098): 2.341
+AA FPKM (gene MX1, −AA FPKM 41.507): 211.673 FPKM
Log2 (+AA/−AA) (gene MYL9, Qvalue 9.98E−29): 4.530
+AA FPKM (gene MYL9, −AA FPKM 0.550): 12.580 FPKM
Log2 (+AA/−AA) (gene NUPR1, Qvalue 8.23E−04): 3.257
+AA FPKM (gene NUPR1, −AA FPKM 1.457): 14.303 FPKM
Log2 (+AA/−AA) (gene OLR1, Qvalue 0.030792442): 2.719
+AA FPKM (gene OLR1, −AA FPKM 1.523): 10.067 FPKM
Log2 (+AA/−AA) (gene ORM1, Qvalue 1.09E−20): 4.863
+AA FPKM (gene ORM1, −AA FPKM 3.003): 88.200 FPKM
Log2 (+AA/−AA) (gene P2RY11, Qvalue 3.25E−10): 3.498
+AA FPKM (gene P2RY11, −AA FPKM 0.970): 10.823 FPKM
Log2 (+AA/−AA) (gene PLA2G7, Qvalue 0.030445407): 2.759
+AA FPKM (gene PLA2G7, −AA FPKM 12.103): 86.573 FPKM
Log2 (+AA/−AA) (gene SIGLEC1, Qvalue 0.003740839): 2.998
+AA FPKM (gene SIGLEC1, −AA FPKM 3.223): 26.273 FPKM
Log2 (+AA/−AA) (gene SLC7A7, Qvalue 6.15E−21): 2.460
+AA FPKM (gene SLC7A7, −AA FPKM 9.010): 49.703 FPKM
Log2 (+AA/−AA) (gene SLC15A3, Qvalue 4.84E−06): 2.417
+AA FPKM (gene SLC15A3, −AA FPKM 9.753): 52.340 FPKM
Log2 (+AA/−AA) (gene SPON2, Qvalue 6.39E−10): 2.497
+AA FPKM (gene SPON2, −AA FPKM 4.037): 22.397 FPKM
Log2 (+AA/−AA) (gene ST14, Qvalue 1.06E−29): 2.575
+AA FPKM (gene ST14, −AA FPKM 1.920): 11.390 FPKM
Log2 (+AA/−AA) (gene TLR7, Qvalue 1.13E−20): 2.326
+AA FPKM (gene TLR7, −AA FPKM 2.483): 12.300 FPKM
Log2 (+AA/−AA) (gene USP18, Qvalue 0.029120385): 3.335
+AA FPKM (gene USP18, −AA FPKM 2.210): 22.600 FPKM
Log2 (+AA/−AA) (gene XCR1, Qvalue 2.80E−29): 2.881
+AA FPKM (gene XCR1, −AA FPKM 1.363): 10.463 FPKM
log2 (+AA/−AA) (Table 3, gene FCER1G, Qvalue 0.03): 0.509
